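How tested: cells in 96-well plates exposed to compound for 48 hours at five concentrations. GI50: concentration for 50% inhibition of growth.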 Activity calls are given as the source filed them. Cut-off read from the data, not from the text of the source: active = GI50 up to about 1.1 µM and inactive = higher.
Tests used:
Test in all cases: growth of human tumour cells (NCI), 48 h
[1] = test system: SR
[2] = test system: Malme-3M
[3] = test system: T47D
[4] = test system: SF-539
[5] = test system: MDA-MB-435
[6] = test system: KM12
[7] = test system: HCT-15
[8] = test system: UO-31
[9] = test system: M14
[10] = test system: UACC-257
[11] = test system: SK-MEL-5
[12] = test system: SF-295
[13] = test system: HOP-62
[14] = test system: BT-549
[15] = test system: NCI-H460
[16] = test system: CAKI-1
[17] = test system: U-251
[18] = test system: MCF7
[19] = test system: HCT-116
[20] = test system: 786-0
[21] = test system: A549
[22] = test system: SNB-75
[23] = test system: IGROV-1
[24] = test system: OVCAR-3
[25] = test system: SN12C
[26] = test system: NCI-H23
[27] = test system: SNB-19
[28] = test system: NCI-H522
[29] = test system: HT-29
[30] = test system: HL-60
[31] = test system: HCC 2998
[32] = test system: SF-268
[33] = test system: SK-MEL-28
[34] = test system: SK-MEL-2
[35] = test system: K562
[36] = test system: ACHN
[37] = test system: A498
[38] = test system: SK-OV-3
[39] = test system: MDA-N
[40] = test system: OVCAR-5
[41] = test system: NCI/ADR-RES
[42] = test system: UACC-62
[43] = test system: LOX IMVI
[44] = test system: SW-620
[45] = test system: TK-10
[46] = test system: COLO 205
[47] = test system: NCI-H226
[48] = test system: MOLT-4
[49] = test system: OVCAR-4
[50] = test system: RXF 393
[51] = test system: EKVX
[52] = test system: RPMI-8226
[53] = test system: Hs-578T
[54] = test system: MDA-MB-231
[55] = test system: OVCAR-8
[56] = test system: DU-145
[57] = test system: CCRF-CEM
[58] = test system: PC-3
[59] = test system: HOP-92

COC(=O)C1=C(OC(=O)/C(=C/c2ccccc2)c2ccc(OC)cc2)C(C(=O)OC)[C@@]2(O)[C@@H](C(=O)OC)[C@H](C)C[C@@H]1[C@@H]2C(=O)OC (some centres undefined)
GI50 [1]: > 100 µM (inactive)
GI50 [2]: > 100 µM (inactive)
GI50 [3]: > 100 µM (inactive)
GI50 [4]: > 100 µM (inactive)
GI50 [5]: > 100 µM (inactive)
GI50 [6]: > 100 µM (inactive)
GI50 [7]: > 100 µM
GI50 [8]: > 100 µM (inactive)
GI50 [9]: > 100 µM (inactive)
GI50 [10]: > 100 µM (inactive)
GI50 [11]: > 100 µM (inactive)
GI50 [12]: > 100 µM (inactive)
GI50 [13]: > 100 µM (inactive)
GI50 [14]: 21 µM (inactive)
GI50 [15]: > 100 µM (inactive)
GI50 [16]: > 100 µM (inactive)
GI50 [17]: 63.2 µM (inactive)
GI50 [18]: > 100 µM (inactive)
GI50 [19]: > 100 µM (inactive)
GI50 [20]: 26.1 µM (inactive)
GI50 [21]: 50.1 µM (inactive)
GI50 [22]: 24.2 µM (inactive)
GI50 [23]: 55.7 µM (inactive)
GI50 [24]: > 100 µM (inactive)
GI50 [25]: > 100 µM (inactive)
GI50 [26]: 50.1 µM (inactive)
GI50 [27]: 32.4 µM (inactive)
GI50 [28]: 35.3 µM (inactive)
GI50 [29]: > 100 µM (inactive)
GI50 [30]: > 100 µM (inactive)
GI50 [31]: > 100 µM (inactive)
GI50 [32]: > 100 µM (inactive)
GI50 [33]: > 100 µM (inactive)
GI50 [34]: > 100 µM (inactive)
GI50 [35]: > 100 µM (inactive)
GI50 [36]: > 100 µM (inactive)
GI50 [37]: > 100 µM (inactive)
GI50 [38]: 80.4 µM (inactive)
GI50 [39]: > 100 µM (inactive)
GI50 [40]: 65.6 µM (inactive)
GI50 [41]: > 100 µM (inactive)
GI50 [42]: > 100 µM (inactive)
GI50 [43]: > 100 µM (inactive)
GI50 [44]: > 100 µM (inactive)
GI50 [45]: > 100 µM (inactive)
GI50 [46]: > 100 µM (inactive)
GI50 [47]: > 100 µM (inactive)
GI50 [48]: > 100 µM (inactive)
GI50 [49]: > 100 µM (inactive)
GI50 [50]: 17.8 µM (inactive)
GI50 [51]: > 100 µM (inactive)
GI50 [52]: > 100 µM (inactive)
GI50 [53]: 20.6 µM (inactive)
GI50 [54]: 18.7 µM (inactive)
GI50 [55]: 35.6 µM (inactive)
GI50 [56]: > 100 µM (inactive)
GI50 [57]: > 100 µM (inactive)
GI50 [58]: > 100 µM (inactive)

CC(=O)c1ccc2c3c1[C@H]1O[C@H]1c1cccc(c1-3)[C@@H]1O[C@H]21
GI50 [1]: 4.57 µM (inactive)
GI50 [2]: 1.37 µM (inactive)
GI50 [3]: 2.15 µM (inactive)
GI50 [5]: 1.79 µM (inactive)
GI50 [6]: 1.87 µM (inactive)
GI50 [7]: 0.959 µM
GI50 [8]: 1.69 µM (inactive)
GI50 [9]: 1.61 µM (inactive)
GI50 [10]: 2.04 µM (inactive)
GI50 [11]: 2.17 µM (inactive)
GI50 [12]: 4.52 µM (inactive)
GI50 [13]: 2.39 µM (inactive)
GI50 [14]: 1.87 µM (inactive)
GI50 [16]: 1.29 µM (inactive)
GI50 [17]: 1.93 µM (inactive)
GI50 [18]: 2.34 µM (inactive)
GI50 [19]: 1.74 µM (inactive)
GI50 [20]: 2 µM (inactive)
GI50 [21]: 2.92 µM (inactive)
GI50 [22]: 1.93 µM (inactive)
GI50 [23]: 0.112 µM (active)
GI50 [24]: 3.27 µM (inactive)
GI50 [25]: 1.85 µM (inactive)
GI50 [26]: 1.49 µM (inactive)
GI50 [27]: 2.98 µM (inactive)
GI50 [28]: 0.286 µM (active)
GI50 [29]: 2.3 µM (inactive)
GI50 [30]: 2.58 µM (inactive)
GI50 [32]: 1.51 µM (inactive)
GI50 [33]: 1.79 µM (inactive)
GI50 [34]: 2.74 µM (inactive)
GI50 [35]: 0.444 µM (active)
GI50 [36]: 1.94 µM (inactive)
GI50 [37]: 2.37 µM (inactive)
GI50 [38]: 5.32 µM (inactive)
GI50 [39]: 2.32 µM (inactive)
GI50 [40]: 1.95 µM (inactive)
GI50 [41]: 1.98 µM (inactive)
GI50 [42]: 2.01 µM (inactive)
GI50 [43]: 0.31 µM (active)
GI50 [44]: 0.855 µM (active)
GI50 [45]: 4.21 µM (inactive)
GI50 [46]: 1.71 µM (inactive)
GI50 [47]: 29.4 µM (inactive)
GI50 [48]: 3.06 µM (inactive)
GI50 [49]: 1.67 µM (inactive)
GI50 [50]: 1.93 µM (inactive)
GI50 [51]: 1.9 µM (inactive)
GI50 [52]: 2.09 µM (inactive)
GI50 [53]: 1.53 µM (inactive)
GI50 [59]: 1.57 µM (inactive)
GI50 [54]: 2.14 µM (inactive)
GI50 [55]: 1.56 µM (inactive)
GI50 [56]: 2.37 µM (inactive)
GI50 [57]: 1.61 µM (inactive)
GI50 [58]: 2.47 µM (inactive)
